Assay results from patent publication US4774232A, “Bile-substituting method of treatment for the promotion of fat digestion” (Chinoin Gyogyszer Es Vegyeszeti Termak Ek Gyara Rt, priority 1985, dated 1988).

Columns and labels:
[1] = system: lipase (pancreas suspension); experiment: In vitro enzymatic hydrolysis of triglycerides: olive oil, pancreas suspension; format: biochemical; conditions: for 0.005 N NaOH consumed: series Bile I, olive oil, pancreas suspension, 37° C.
Procedure: (§1) In an aqueous medium, lipase is capable to split triglycerides only at an extraordinarily low rate. Therefore, an organic solvent should be added to the system, by which the solubility of the triglycerides is increased, but the enzyme activity is diminished. Alternatively, some type of detergent, suitably bile has to be used. The effect of bile was compared to that of DIMEB at 37° C. in such a way that, the quantity of the formed free fatty acids in the samples taken from the reaction mixture at various intervals was titrated by using sodium hydroxide solution. The composition of the reaction mixture was as follows:
(§2) a total volume of 1.5 ml contained 4 μmoles of the substrate (triolein or olive oil), 10 mg of bovine serum albumin, 75 μmoles of sodium chloride, 50 μmoles of a phosphate buffer solution (pH 7.4) and 0.25 ml of an enzyme solution. A lipase of the Serva Company (in an 1 mg/10 ml solution) or a pancreas powder (0.5 g was suspended in 10 ml of distilled water and the slightly opalescent solution obtained after filtration was used) were employed as enzyme preparations.
(§3) The composition of the solutions to be tested were as follows:
(§4) 0.5 ml of buffer+10 mg of serum albumin+3.54 mg of substrate+0.25 ml of enzyme solution plus
(§5) (a) 0.25 ml of diluted bile+0.50 ml of distilled water; or
(§6) (b) 50 mg of dimethyl-β-cyclodextrin dissolved in 0.75 ml of water; or […]

lipase = experiment: In vitro enzymatic hydrolysis of triglycerides: glycerol trioleate, lipase; format: biochemical; conditions: 37° C.
Procedure: as §1, §2, §3, §4, §5, §6

[2] = system: bile duct-ligated rabbits; experiment: Substitution of the bile in bile duct-ligated rabbits (plasma triglyceride); format: in vivo, rabbits (Orychtolagus cuniculus); conditions: for Plasma triglyceride concentration: rabbits after bile duct ligature
Procedure: The triglyceride concentration of the plasma was determined by using the method of E. Van Handel [Clin. Chem.. 7, 249 (1961)], whereas the concentration of the free fatty acids was measured according to W. G. Dumcombe [Biochem. J. 88, 7 (1963)].
The experimental animals were prevented in using their own bile for digestion of lipids by ligating their bile duct. Triglyceride concentration of the blood plasma was investigated after oral administration of lipids under normal pancreas secretion.
The experimental rabbits (Orychtolagus cuniculus) were kept at a standard food fo 10 days before the experiment. The organic material composition of the animal food was as follows:
The energy content of 100 g of the food amounted to […]. The animals were starved for 12 to 24 hours before the surgical operations but received water ad libitum. Within the same experimental series, rabbits of the same sex with a body weight of 2500 to 3000 g were used and the surgical operations were concurrently carried out. Pseudo-operated animals were used as controls. The operated experimental animals were used for the investigations after 48 hours. The test substances were orally administered to the animals through a gastric tube. The blood samples were taken from the auricular marginal vene.
In the first series of experiments, the first group of animals were given 3 ml of sunflower oil, the second group of animals were given 3 ml of sunflower oil and 200 mg of DIMEB dissolved in 3 ml of water. The control (speudo-operated) animals received 6 ml of water.
It is known that the digestion of the fats is a slower process than that of the oils. Thus, in the second series of experiments, the changes of the plasma triglyceride concentration of bile duct-ligated rabbits were followed after the oral administration of 5 ml of swine fat and 5 ml of swine fat together with 300 mg of DIMEB, respectively. The control group was given 5 ml of water (Table V). The quantity of the triglycerides was increased by about 100 percent as compared to the other two groups within one hour following the treatment. This tendency permanently remained during the experimental period lasting 6 hours.

bile duct-ligated rats = experiment: Substitution of the bile in rats: plasma total lipid after single fat dose; format: in vivo, rats (Etymis rattus var. albino)
Procedure: In the first series of experiments, the total lipid concentration of the plasma was investigated in bile-deficient rats.
The experimental rats (Etymis rattus var. albino) were kept on a standard food for 10 days before the experiment. The composition of this animal food was as follows:
The bile duct was ligated under ether anaesthesia.
In the 48th hour following the operation, 1.5 ml of swine fat or 1.5 ml of swine fat together with 75 mg of DIMEB were orally administered. After 4.5 hours, the animals were decapitated and the total lipid concentration of the plasma was determined according to the method of de La Huerga et al. [Amer. J. Clin. Pathol. 23, 1163 (1953)]

`COC[C@H]1O[C@@H]2O[C@H]3[C@H](O)[C@@H](OC)[C@@H](O[C@H]4[C@H](O)[C@@H](OC)[C@@H](O[C@H]5[C@H](O)[C@@H](OC)[C@@H](O[C@H]6[C@H](O)[C@@H](OC)[C@@H](O[C@H]7[C@H](O)[C@@H](OC)[C@@H](O[C@H]8[C@H](O)[C@@H](OC)[C@@H](O[C@H]1[C@H](O)[C@H]2OC)O[C@@H]8COC)O[C@@H]7COC)O[C@@H]6COC)O[C@@H]5COC)O[C@@H]4COC)O[C@@H]3COC` [DIMEB, heptakis(2,6-di-O-methyl)-β-cyclodextrin] was tested, and the “Effect on the action of lipase” value ([1]; in vitro, Table 1 overall) was “accelerate the action of lipase to a significant extent”, the “0.005 N NaOH consumed” value ([1]; reaction time 0.5 hour) was 1.74 mL and the “0.005 N NaOH consumed” value ([1]; reaction time 1 hour) was 2.00 mL. The “0.005 N NaOH consumed” value ([1]; reaction time 2 hour) was 2.20 mL, the “0.005 N NaOH consumed” value ([1]; reaction time 19 hour) was 4.77 mL and the “0.005 N NaOH consumed” value (lipase; series Bile II, glycerol trioleate, reaction time 1 hour) was 0.34 mL. For the same compound, the “0.005 N NaOH consumed” value (lipase; series Bile II, glycerol trioleate, reaction time 2 hour) was 0.80 mL, the “0.005 N NaOH consumed” value (lipase; series Bile II, glycerol trioleate, reaction time 3 hour) was 1.16 mL and the “0.005 N NaOH consumed” value (lipase; series Bile II, glycerol trioleate, reaction time 21 hour) was 1.86 mL. For the same compound, the “0.005 N NaOH consumed” value (lipase; series Bile III, glycerol triolate, reaction time 1 hour) was 0.28 mL, the “0.005 N NaOH consumed” value (lipase; series Bile III, glycerol triolate, reaction time 2 hour) was 0.68 mL and the “0.005 N NaOH consumed” value (lipase; series Bile III, glycerol triolate, reaction time 4 hour) was 1.20 mL. The “Plasma triglyceride concentration compared with the group treated with oil alone” value ([2]; bile duct-ligated rabbits, 3 ml sunflower oil + 200 mg DIMEB, 6th hour) was “nearly three-fold”, the “Increase of the quantity of plasma triglycerides compared to the other two groups” value ([2]; bile duct-ligated rabbits, 5 ml swine fat + 300 mg DIMEB, within one hour following the treatment) was “about 100%” and the Plasma triglyceride concentration ([2]; 3 ml sunflower oil + 200 mg DIMEB oral, Hour 0) was 52 ± 19 mg/100 ml. The Plasma triglyceride concentration ([2]; 3 ml sunflower oil + 200 mg DIMEB oral, Hour 1) was 96 ± 32 mg/100 ml, the Plasma triglyceride concentration ([2]; 3 ml sunflower oil + 200 mg DIMEB oral, Hour 2.5) was 87 ± 30 mg/100 ml and the Plasma triglyceride concentration ([2]; 3 ml sunflower oil + 200 mg DIMEB oral, Hour 4) was 61 ± 14 mg/100 ml. For the same compound, the Plasma triglyceride concentration ([2]; 3 ml sunflower oil + 200 mg DIMEB oral, Hour 6) was 125 ± 3 mg/100 ml, the Plasma triglyceride concentration ([2]; 5 ml swine fat + 300 mg DIMEB oral, Hour 0) was 58 ± 19 mg/100 ml and the Plasma triglyceride concentration ([2]; 5 ml swine fat + 300 mg DIMEB oral, Hour 1) was 104 ± 30 mg/100 ml. For the same compound, the Plasma triglyceride concentration ([2]; 5 ml swine fat + 300 mg DIMEB oral, Hour 2.5) was 92 ± 26 mg/100 ml, the Plasma triglyceride concentration ([2]; 5 ml swine fat + 300 mg DIMEB oral, Hour 4) was 83 ± 25 mg/100 ml and the Plasma triglyceride concentration ([2]; 5 ml swine fat + 300 mg DIMEB oral, Hour 6) was 125 ± 3 mg/100 ml. The “Increase of total lipid fraction in the blood plasma” value (bile duct-ligated rats; bile duct-ligated rats, 1.5 ml fat + 75 mg DIMEB) was 5 fold and the “Total lipid concentration of the blood plasma” value (bile duct-ligated rats; rats after bile duct-ligation, 1.5 ml fat + 75 mg DIMEB oral, after 4.5 hours) was 1266.6 ± 86.5 mg/100 ml.
